Source: patent US20230233533A1, “COMPOSITIONS, METHODS OF TREATING AND PREVENTING FUNGAL INFECTIONS, AND METHODS OF INHIBITING PRP8 INTEIN EXPRESSION” (Health Research, Inc., priority 2020, published 2023)
Values after ≈ are worked out from the molar mass of the structure shown. Values joined by “and” are separate entries in the source; they are usually repeats but may differ in a detail not shown here. Equal entries are not always repeated. Numbered stars: 1 amine (or outer) side, 2 acyl side, 3 side chain; on linkers, the order of the positions; unused ones are H or OH. Bridge positions count the residues as written; N and C are the ends. Square brackets hold non-standard residues; d marks the D form. Peptide text beside a SMILES is read from it. * marks the point of attachment. hTyr(3S-OH,4S-OH,3'-OSO3H) = N[C@H](C(=O)O)[C@H](O)[C@@H](O)c1ccc(O)c(OS(=O)(=O)O)c1; pTerphenylCO(4''-OnC5H11) = CCCCCOc1ccc(-c2ccc(-c3ccc(C(=O)*)cc3)cc2)cc1; Orn(4R-OH,5R-OH) = O=C([C@H](C[C@@H](O)[C@@H](O)N[*:3])N[*:1])[*:2]; hTyr(3S-OH,4S-OH) = N[C@H](C(=O)O)[C@H](O)[C@@H](O)c1ccc(O)cc1; Pro(3S-OH,4S-Me) = C[C@H]1CN[C@H](C(=O)O)[C@H]1O; X1 = CCCCCOc1ccc(-c2cc(-c3ccc(C(=O)*)cc3)no2)cc1; Gln(3R-OH) = NC(=O)C[C@@H](O)[C@H](N)C(=O)O; Hyp = O=C(O)[C@@H]1C[C@@H](O)CN1

Columns and labels:
[1] = system: C. neoformans; experiment: Sensititre YeastOne Y09 AST drug combination assay; assay type: cell-based, Cryptococcus neoformans; details: 6G-318S at 0.16 ug/ml, C. neoformans H99
Experimental: Sensititre YeastOne Y09 AST assay—Fungal susceptibility to a combination of compounds was carried out using the Sensititre YeastOne Y09 AST assay kit (Thermofisher), according to the manufacturer's manual. Briefly, fungal C. neoformans cells in exponential growth phase were diluted to a final OD530 of 0.1. Then 20 μl diluted cells were further diluted into 10 ml YPD as a stock. […] The stock C. neoformans (100 μl, ˜200 cells) were dispensed into the compound-ready 96-well plate. The fungal cells (treated or with DMF) were incubated at 30° C. for 48 h. The cell cultures were visualized by naked eye. The MIC break points were determined according to manufacturer's instructions.

[2] = system: C. neoformans H99; experiment: Checkerboard assay; assay type: cell-based, Cryptococcus neoformans; details: for MIC: Cryptococcus neoformans, H99, 48 h
Experimental: Compounds were initially dissolved in DMSO and diluted in RPMI-1640-MOPS media four times the targeted final concentration and 50 μl was added per well. The second compound was similarly diluted and 50 μl was added per well, to a final volume of 100 μl/well. C. neoformans […] inoculum (100 μl) prepared from freshly grown cultures and diluted to an absorbance of 0.1 at 530 nm in water and further diluted (1:500) in RPMI-1640-MOPS was added to each well. To determine the fungicidal concentration of a compound, the wells with no visible growth were serially diluted, plated on SDA, and incubated at 30° C. for 48-72 h for the recovery of colony-forming units. Additionally, the cell density of treated and untreated wells was also estimated by reading absorbance at 630 nm using an EL808 reader (Bio-Tek). Percentage of inhibition compared to that of the no-drug-control well was calculated. […] Fractional inhibitory concentration (FIC) index value is calculated as the […]. The FIC index value is then used to categorize the interaction of the two compounds tested. […] Doern, C., “When Does 2 plus 2 Equal 5?A Review of Antimicrobial Synergy Testing,” Journal of Clinical Microbiology 52(12):4124-4128 (2014), which is hereby incorporated by reference in its entirety.

[3] = molecular target: T1, papain (Carica papaya, UniProt P00784); experiment: Papain protease inhibition (Abz FRET substrate); assay type: biochemical; details: compound at 400 μM
T1 construct: purchased Sigma-Aldrich
T1 sequence (P00784 134-345): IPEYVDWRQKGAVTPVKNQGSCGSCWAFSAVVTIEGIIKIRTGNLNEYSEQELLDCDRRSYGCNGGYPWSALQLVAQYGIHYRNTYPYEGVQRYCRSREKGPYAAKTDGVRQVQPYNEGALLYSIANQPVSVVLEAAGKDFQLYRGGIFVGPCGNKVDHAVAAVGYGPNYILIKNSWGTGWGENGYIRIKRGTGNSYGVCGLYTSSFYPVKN
Experimental: (§1) Trypsin and papain protease inhibition—An Abz FRET substrate (Abz-RRRRSAG-nTyr) developed previously (Li et al., “Existing Drugs as Broad-Spectrum and Potent Inhibitors for Zika Virus by Targeting NS2B-NS3 Interaction,” Cell Research 27(8):1046-1064 (2017), which is hereby incorporated by reference in its entirety) was used as the substrate for inhibition of trypsin and papain proteases. In black and clear-bottom 96-well plates, 1 μg trypsin (Sigma-Aldrich) was incubated with DMF or compounds at 400 μM at 25° C. for 30 min in a 70 μl reaction buffer containing 20 mM Tris, pH 8.0, 100 mM NaCl, 5% Glycerol, and 0.05% CHAPS. For papain, 1 μg Papain (Sigma-Aldrich) was incubated with compounds at 400 μM at 25° C. for 30 min in a 70 μl reaction buffer composed of 1.1 mM EDTA, 0.067 mM β-mercaptoethanol, 5.5 mM cysteine. […]

[4] = system: C. neoformans H99 strain; experiment: Fungal susceptibility test, broth microdilution MIC; assay type: cell-based, Cryptococcus neoformans; details: Cryptococcus neoformans, H99STRAIN; H99 strain, 48 h, 30° C.; read-out: MIC C. neoformans
Method in brief: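 Compound MICs were determined by broth microdilution using a compound concentration series.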

[5] = system: Candida albicans; experiment: as above; assay type: cell-based; details: microdilution assay
Experimental: Fungal susceptibility test—The fungal susceptibility test was carried out with a compound concentration series as described. Li et al., “Cisplatin Protects Mice From Challenge of Cryptococcus neoformans by Targeting the Prp8 Intein,” Emerging Microbes & Infections 8(1):895-908 (2019), which is hereby incorporated by reference in its entirety. The broth microdilution method was used to determine the compound MIC values against C. neoformans. In brief, serial 2-fold dilutions of the 6G-318SS (20 to 0.03 μg/ml) were made in 100 μl RPMI-1640 medium with MOPS in 96-well U-bottom plates. The C. neoformans H99 strain (100 μl of 0.5×10^5/ml) in log phase was added to each well. […] The MIC break-point was defined as no visible fungal growth by naked eye or by determining the 90% growth inhibition using absorbance at 630 nm, compared with no inhibitor control in a 96-well plate.
C. albicans, a fungus without the Prp8 intein, was also used as a control.

[6] = molecular target: Prp8 intein (Cryptococcus gattii, UniProt E6R027); experiment: Split GFP-Prp8i intein splicing assay; assay type: biochemical
Experimental: Cloning, expression and purfication—The split GFP-Prp8i was constructed using a mega-PCR mutagenesis approach. […] After digestion with Dpn I restriction enzyme, the PCR product was transformed into DH5α Escherichia coli. Clones were verified by plasmid DNA sequencing. The expression, refolding and purification of the GFP-Prp8i fusion protein were carried out as described previously.
[…] Then 100 μl 2×TCEP was added to a final concentration of 20 μM. The reactions were incubated at 25° C. overnight. […] Two readings were taken, one prior to addition of TCEP (I0) and one after incubation overnight with TCEP (If). Fluorescence/luminescence differences (ΔFluorescence or ΔLuminescence) were defined as If−I0 for each well. […] DMF control served as 100% splicing activity.
Split GFP-Prp8 and CJGFP-Prp8 intein splicing assays—Using black and clear bottom 96-well plates, the DPNB-treated, -refolded and -concentrated GFP-Prp8 or CfGFP-Prp8 fusion protein (0.5 μM) was incubated with compounds or Dimethylsulfoxide (DMSO) solvent control for 30 min at 25° C. in a 100 μl intein splicing buffer (20 mM Bis-tris propane, 0.5 M NaCl, 0.5 M arginine, 1 mM EDTA, and 0.05% CHAPS). Then 100 μl 2×TCEP was added to a final concentration of 20 μM. The reactions were incubated at 25° C. overnight. […] Two readings were taken, one prior to addition of TCEP (I0) and one after incubation overnight with TCEP (If). Fluorescence/luminescence differences (ΔFluorescence or ΔLuminescence) were defined as If−I0 for each well. […] DMSO control served as 100% splicing activity.

[7] = in vitro; assay type: cell-based, human; details: human, CC50 A549
Method in brief: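 A549 cells (5×10^3 per well) were exposed to compounds at 37 °C for 48 h, and viability was read by MTT assay; N=3.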

[8] = system: trypsin; experiment: Trypsin protease inhibition (Abz FRET substrate); assay type: biochemical; details: compound at 400 μM
Experimental: as §1

Chain of Prp8 intein (E6R027 entry or part of it): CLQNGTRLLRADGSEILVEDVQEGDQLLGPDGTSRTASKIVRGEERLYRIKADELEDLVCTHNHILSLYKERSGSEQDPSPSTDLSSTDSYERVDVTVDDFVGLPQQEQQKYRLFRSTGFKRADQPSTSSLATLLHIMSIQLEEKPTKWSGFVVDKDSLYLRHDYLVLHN

| Structure (SMILES) | reduction of MIC of known antifungal on addition of 6G-318S [1] | MIC [2] | also measured |
| --- | --- | --- | --- |
| Nc1nc(=O)[nH]cc1F [5-FC, 5-fluorocytosine, reference compound] | 2 fold | 8.1 µg/mL | MIC-comb ([2]; combination 6G-318S + 5-FC, well D6): 2.025 µg/mL |
| O=C(Nc1ccc(F)cc1F)c1nnsc1S(=O)(=O)c1ccc(Cl)cc1 [6G-319S, 5-((4-Chlorophenyl)sulfonyl)-N-(2,4-difluorophenyl)-1,2,3-thiadiazole-4-carboxamide] |  |  | inhibition of papain protease activity [3]: neither 6G-318S, 6G-319S, nor cisplatin significantly inhibited; MIC [4]: 1.3 µg/mL (≈ 3.13 µM); MIC [5]: 20.8 µg/mL (≈ 50 µM); inhibition at 20 µM ([6]; compound at 20 μM, read-out: inhibition of the GFP-Prp8i signal / Prp8 intein splicing): > 50%; IC50 ([6]; split GFP-Prp8 intein splicing): 9.7 µM; CC50 at 48 h [7]: 44.9 µg/mL and ~108 µM; inhibition of trypsin protease activity [8]: neither 6G-318S, 6G-319S, nor cisplatin significantly inhibited |
| CCCCCOc1ccc(-c2ccc(-c3ccc(C(=O)N[C@H]4C[C@@H](O)[C@@H](O)NC(=O)[C@@H]5[C@@H](O)[C@@H](C)CN5C(=O)[C@H]([C@@H](C)O)NC(=O)[C@H]([C@H](O)[C@@H](O)c5ccc(O)cc5)NC(=O)[C@@H]5C[C@@H](O)CN5C(=O)[C@H]([C@@H](C)O)NC4=O)cc3)cc2)cc1 [AND, Anidulafungin] ({pTerphenylCO(4''-OnC5H11)}-[Orn(4R-OH,5R-OH)]T[Hyp][hTyr(3S-OH,4S-OH)]T[Pro(3S-OH,4S-Me)]; lactam 1-C) | did not change |  |  |
| C[C@@H]1[C@H](O)[C@@H](C)/C=C/C=C/C=C/C=C/C=C/C=C/C=C/[C@H](O[C@@H]2O[C@H](C)[C@@H](O)[C@H](N)[C@@H]2O)C[C@@H]2O[C@](O)(C[C@@H](O)C[C@@H](O)[C@H](O)CC[C@@H](O)C[C@@H](O)CC(=O)O[C@H]1C)C[C@H](O)[C@H]2C(=O)O [AmB, amphotericin B, reference compound] | more than 4 fold |  | MIC-alone ([2]; C. neoformans H99, 48 h, 90% inhibition): 0.578 µg/mL; MIC-comb ([2]; combination 6G-318S + AmB, well F6): 0.144 µg/mL |
| CC[C@H](C)C[C@H](C)CCCCCCCCC(=O)N[C@H]1C[C@@H](O)[C@@H](NCCN)NC(=O)[C@@H]2[C@@H](O)CCN2C(=O)[C@H]([C@H](O)CCN)NC(=O)[C@H]([C@H](O)[C@@H](O)c2ccc(O)cc2)NC(=O)[C@@H]2C[C@@H](O)CN2C(=O)[C@H]([C@@H](C)O)NC1=O [CAS, Caspofungin] | did not change |  |  |
| OC(Cn1cncn1)(Cn1cncn1)c1ccc(F)cc1F [FZ, fluconazole] | did not change |  |  |
| CCC(C)n1ncn(-c2ccc(N3CCN(c4ccc(OCC5COC(Cn6cncn6)(c6ccc(Cl)cc6Cl)O5)cc4)CC3)cc2)c1=O (stereo not drawn) [IZ, itraconazole, reference compound] | 2 fold | 0.176 µg/mL | MIC-comb ([2]; combination 6G-318S + IZ, well D6): 0.088 µg/mL |
| CCCCCOc1ccc(-c2cc(-c3ccc(C(=O)N[C@H]4C[C@@H](O)[C@@H](O)NC(=O)[C@@H]5[C@@H](O)[C@@H](C)CN5C(=O)[C@H]([C@H](O)CC(N)=O)NC(=O)[C@H]([C@H](O)[C@@H](O)c5ccc(O)c(OS(=O)(=O)O)c5)NC(=O)[C@@H]5C[C@@H](O)CN5C(=O)[C@H]([C@@H](C)O)NC4=O)cc3)no2)cc1 [MF, Micafungin] (X1-[Orn(4R-OH,5R-OH)]T[Hyp][hTyr(3S-OH,4S-OH,3'-OSO3H)][Gln(3R-OH)][Pro(3S-OH,4S-Me)]; lactam 1-C) | did not change |  |  |
| CC[C@@H]([C@H](C)O)n1ncn(-c2ccc(N3CCN(c4ccc(OC[C@@H]5CO[C@@](Cn6cncn6)(c6ccc(F)cc6F)C5)cc4)CC3)cc2)c1=O [PZ, Posaconazole] | did not change |  |  |
| C[C@@H](c1ncncc1F)[C@](O)(Cn1cncn1)c1ccc(F)cc1F [Vor, Voriconazole, reference compound] | 2 fold | 0.044 µg/mL | MIC-comb ([2]; combination 6G-318S + Vor, well G3): 0.087 µg/mL |
